Data taken from US9546401B2, “Assays and methods for selecting a treatment regimen for a subject with depression” (The General Hospital Corporation, priority 2011, dated 2017).
Where two headings read alike, the source gives them in different places.

Columns and labels:
[1] = system: MDD patients carrying the indicated SNP
From the text: The term “prevalence” as used in FIG. 8B refers to the total percentage of MDD patients who carry the SNP as indicated in this particular study.

[2] = system: SSRI-resistant outpatients with major depressive disorder (MDD); details: for Cardiovascular side effects, NNH / Gastrointestinal side effects, NNH / Infectious side effects, NNH / Miscellaneous side effects, NNH / Psychological side effects, NNH / Sexual side effects, NNH / Sleep side effects, NNH / Somatic side effects, NNH: versus placebo;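 for all read-outs here: adverse events recorded at every visit with the SAFTEE-SI in a 60-day double-blind sequential parallel trial of two 30-day phases, visits every 10 days, placebo as comparator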
From the text: The study involved the enrollment of a total of 148 patients with MDD over the course of 12 months across 10 medical centers or hospitals in the United States. […] In accordance with the sequential parallel design [51], the 60-day, double-blind treatment was divided into two phases of 30 days each, with assessments performed every 10 days.

[3] = system: MDD patients positive or negative for SNP biomarkers; details: subjects positive for MTR 2756 AG or GG versus negative
From the text: A responder is indicated by a reduction of at least about 50% in HAMD-28 over the evaluation period.

[4] = CACNA1C rs1006737 (AG), genotype code 13
[5] = COMT (Val 158 Met) rs4680 (GG), genotype code 33
[6] = COMT (Val 158 rs4633 (CC), genotype code 22)
[7] = DAT (SLC6A3) rs250682 (CG), genotype code 33
[8] = DNMT3B rs1883729 (AG), genotype code 11/13
[9] = DNMT3B rs1883729 (AG), genotype code 11
[10] = DNMT3B rs1883729 (AG), genotype code 13
[11] = DRD2 (H313H) rs6275 (TT), genotype code 11
[12] = DRD2 (SLC26A9) rs11240594 (AG), genotype code 33
[13] = DRD2 (Taq1Br) rs1079596 (TC), genotype code 42/44
[14] = DRD2 (Taq1Br) rs1079596 (TC), genotype code 42
[15] = FDRC rs2277820 (TC), genotype code 22
[16] = GCH1 rs8007267 (TC), genotype code 42
[17] = GCHFR rs7163862 (TA), genotype code 41
[18] = GCPH or FOLH1 rs202676 (AG), genotype code 31
[19] = MTHFD 1 G1958A (R653Q) rs2236225 (AG), genotype code 33
[20] = MTHFR G1793A rs2274976 (GA), genotype code 42
[21] = PCYT1A rs7639752 (AA), genotype code 11
[22] = RCF1 (in SLC19A1) rs1051266 (AA), genotype code 44
[23] = RCF1 A > G rs2297291 (AA), genotype code 11
[24] = RCF2 (in SLC19A1) rs12659 (TT), genotype code 11

CN1c2c(nc(N)[nH]c2=O)NC[C@@H]1CNc1ccc(C(=O)N[C@@H](CCC(=O)O)C(=O)O)cc1 [6(S)-5-MTHF, 6(S)-5-methyltetrahydrofolate]
PHASE I EFFFCT, change in HAMD-28 [1, 4]: −8.006
PHASE II EFFFCT, change in HAMD-28 [1, 4]: −2.467
POOLED PHASES EFFFCT, change in HAMD-28 [1, 4]: −4.633
PHASE II EFFFCT, change in HAMD-28 [1, 5]: −10.170
PHASE I EFFFCT, change in HAMD-28 ([1]; COMT (Val 158 Met) rs4680 (GG), genotype code 33, folate-containing compound + SSRI): −12.070
POOLED PHASES EFFFCT, change in HAMD-28 [1, 5]: −10.880
PHASE I EFFFCT, change in HAMD-28 [1, 6]: −10.070
PHASE II EFFFCT, change in HAMD-28 [1, 6]: −10.170
POOLED PHASES EFFFCT, change in HAMD-28 [1, 6]: −9.240
PHASE I EFFFCT, change in HAMD-28 [1, 7]: −5.722
PHASE II EFFFCT, change in HAMD-28 [1, 7]: −5.768
POOLED PHASES EFFFCT, change in HAMD-28 [1, 7]: −4.996
PHASE I EFFFCT, change in HAMD-28 [1, 8]: −6.340
PHASE II EFFFCT, change in HAMD-28 [1, 8]: −4.940
POOLED PHASES EFFFCT, change in HAMD-28 [1, 8]: −5.360
PHASE I EFFFCT, change in HAMD-28 [1, 9]: −2.318
PHASE II EFFFCT, change in HAMD-28 [1, 9]: −5.267
POOLED PHASES EFFFCT, change in HAMD-28 [1, 9]: −4.811
PHASE I EFFFCT, change in HAMD-28 [1, 10]: −8.097
PHASE II EFFFCT, change in HAMD-28 [1, 10]: −4.667
POOLED PHASES EFFFCT, change in HAMD-28 [1, 10]: −6.748
PHASE I EFFFCT, change in HAMD-28 [1, 11]: −16.560
PHASE II EFFFCT, change in HAMD-28 [1, 11]: 1.667
POOLED PHASES EFFFCT, change in HAMD-28 [1, 11]: −7.627
PHASE I EFFFCT, change in HAMD-28 [1, 12]: −5.018
PHASE II EFFFCT, change in HAMD-28 [1, 12]: −3.424
POOLED PHASES EFFFCT, change in HAMD-28 [1, 12]: −3.758
PHASE I EFFFCT, change in HAMD-28 [1, 13]: −10.640
PHASE II EFFFCT, change in HAMD-28 [1, 13]: −3.893
POOLED PHASES EFFFCT, change in HAMD-28 [1, 13]: −6.903
PHASE I EFFFCT, change in HAMD-28 [1, 14]: −10.640
PHASE II EFFFCT, change in HAMD-28 [1, 14]: −3.893
POOLED PHASES EFFFCT, change in HAMD-28 [1, 14]: −6.903
PHASE I EFFFCT, change in HAMD-28 [1, 15]: −2.634
PHASE II EFFFCT, change in HAMD-28 [1, 15]: −6.232
POOLED PHASES EFFFCT, change in HAMD-28 [1, 15]: −4.027
PHASE I EFFFCT, change in HAMD-28 [1, 16]: −7.729
PHASE II EFFFCT, change in HAMD-28 [1, 16]: −5.417
POOLED PHASES EFFFCT, change in HAMD-28 [1, 16]: −6.654
PHASE I EFFFCT, change in HAMD-28 [1, 17]: −6.280
PHASE II EFFFCT, change in HAMD-28 [1, 17]: −4.542
POOLED PHASES EFFFCT, change in HAMD-28 [1, 17]: −4.863
PHASE I EFFFCT, change in HAMD-28 [1, 18]: −7.314
PHASE II EFFFCT, change in HAMD-28 [1, 18]: −3.300
POOLED PHASES EFFFCT, change in HAMD-28 [1, 18]: −5.402
PHASE I EFFFCT, change in HAMD-28 [1, 19]: −2.742
PHASE II EFFFCT, change in HAMD-28 [1, 19]: −3.762
POOLED PHASES EFFFCT, change in HAMD-28 [1, 19]: −3.496
PHASE I EFFFCT, change in HAMD-28 [1, 20]: −5.333
PHASE II EFFFCT, change in HAMD-28 [1, 20]: 2.833
POOLED PHASES EFFFCT, change in HAMD-28 [1, 20]: −5.551
PHASE I EFFFCT, change in HAMD-28 [1, 21]: −10.400
PHASE II EFFFCT, change in HAMD-28 [1, 21]: −3.900
POOLED PHASES EFFFCT, change in HAMD-28 [1, 21]: −6.716
PHASE I EFFFCT, change in HAMD-28 [1, 22]: −10.000
PHASE II EFFFCT, change in HAMD-28 [1, 22]: −2.750
POOLED PHASES EFFFCT, change in HAMD-28 [1, 22]: −7.673
PHASE I EFFFCT, change in HAMD-28 [1, 23]: −8.778
PHASE II EFFFCT, change in HAMD-28 [1, 23]: −1.400
POOLED PHASES EFFFCT, change in HAMD-28 [1, 23]: −5.458
PHASE I EFFFCT, change in HAMD-28 [1, 24]: −7.571
PHASE II EFFFCT, change in HAMD-28 [1, 24]: −1.400
POOLED PHASES EFFFCT, change in HAMD-28 [1, 24]: −4.860
adverse side effect when administered with an SSRI ([2]; Trial 1): does not appear to cause any adverse side effect
Cardiovascular side effects, Frequency ([2]; Trial 1, 7.5 mg + SSRI, n = 94): 0
Cardiovascular side effects, Frequency (%) ([2]; Trial 1, 7.5 mg + SSRI, n = 94): (0%)
Gastrointestinal side effects, Frequency ([2]; Trial 1, 7.5 mg + SSRI, n = 94): 9
Gastrointestinal side effects, Frequency (%) ([2]; Trial 1, 7.5 mg + SSRI, n = 94): (9.6%)
Infectious side effects, Frequency ([2]; Trial 1, 7.5 mg + SSRI, n = 94): 6
Infectious side effects, Frequency (%) ([2]; Trial 1, 7.5 mg + SSRI, n = 94): (6.4%)
Miscellaneous side effects, Frequency ([2]; Trial 1, 7.5 mg + SSRI, n = 94): 1
Miscellaneous side effects, Frequency (%) ([2]; Trial 1, 7.5 mg + SSRI, n = 94): (1.1%)
Psychological side effects, Frequency ([2]; Trial 1, 7.5 mg + SSRI, n = 94): 2
Psychological side effects, Frequency (%) ([2]; Trial 1, 7.5 mg + SSRI, n = 94): (2.1%)
Sexual side effects, Frequency ([2]; Trial 1, 7.5 mg + SSRI, n = 94): 0
Sexual side effects, Frequency (%) ([2]; Trial 1, 7.5 mg + SSRI, n = 94): (0%)
Sleep side effects, Frequency ([2]; Trial 1, 7.5 mg + SSRI, n = 94): 3
Sleep side effects, Frequency (%) ([2]; Trial 1, 7.5 mg + SSRI, n = 94): (3.2%)
Somatic side effects, Frequency ([2]; Trial 1, 7.5 mg + SSRI, n = 94): 9
Somatic side effects, Frequency (%) ([2]; Trial 1, 7.5 mg + SSRI, n = 94): (9.6%)
Cardiovascular side effects, NNH ([2]; Trial 1, 7.5 mg + SSRI): <placebo
Gastrointestinal side effects, NNH ([2]; Trial 1, 7.5 mg + SSRI): <placebo
Infectious side effects, NNH ([2]; Trial 1, 7.5 mg + SSRI): <placebo
Miscellaneous side effects, NNH ([2]; Trial 1, 7.5 mg + SSRI): <placebo
Psychological side effects, NNH ([2]; Trial 1, 7.5 mg + SSRI): <placebo
Sexual side effects, NNH ([2]; Trial 1, 7.5 mg + SSRI): =placebo
Sleep side effects, NNH ([2]; Trial 1, 7.5 mg + SSRI): <placebo
Somatic side effects, NNH ([2]; Trial 1, 7.5 mg + SSRI): <placebo
Cardiovascular side effects, Frequency ([2]; Trial 1, 15 mg + SSRI, n = 30): 2
Cardiovascular side effects, Frequency (%) ([2]; Trial 1, 15 mg + SSRI, n = 30): (6.7%)
Gastrointestinal side effects, Frequency ([2]; Trial 1, 15 mg + SSRI, n = 30): 3
Gastrointestinal side effects, Frequency (%) ([2]; Trial 1, 15 mg + SSRI, n = 30): (10.0%)
Infectious side effects, Frequency ([2]; Trial 1, 15 mg + SSRI, n = 30): 2
Infectious side effects, Frequency (%) ([2]; Trial 1, 15 mg + SSRI, n = 30): (6.7%)
Miscellaneous side effects, Frequency ([2]; Trial 1, 15 mg + SSRI, n = 30): 2
Miscellaneous side effects, Frequency (%) ([2]; Trial 1, 15 mg + SSRI, n = 30): (6.7%)
Psychological side effects, Frequency ([2]; Trial 1, 15 mg + SSRI, n = 30): 2
Psychological side effects, Frequency (%) ([2]; Trial 1, 15 mg + SSRI, n = 30): (6.7%)
Sexual side effects, Frequency ([2]; Trial 1, 15 mg + SSRI, n = 30): 0
Sexual side effects, Frequency (%) ([2]; Trial 1, 15 mg + SSRI, n = 30): (0%)
Sleep side effects, Frequency ([2]; Trial 1, 15 mg + SSRI, n = 30): 2
Sleep side effects, Frequency (%) ([2]; Trial 1, 15 mg + SSRI, n = 30): (6.7%)
Somatic side effects, Frequency ([2]; Trial 1, 15 mg + SSRI, n = 30): 3
Somatic side effects, Frequency (%) ([2]; Trial 1, 15 mg + SSRI, n = 30): (10.0%)
Cardiovascular side effects, NNH ([2]; Trial 1, 15 mg + SSRI): <placebo
Gastrointestinal side effects, NNH ([2]; Trial 1, 15 mg + SSRI): <placebo
Infectious side effects, NNH ([2]; Trial 1, 15 mg + SSRI): <placebo
Miscellaneous side effects, NNH ([2]; Trial 1, 15 mg + SSRI): <placebo
Psychological side effects, NNH ([2]; Trial 1, 15 mg + SSRI): <placebo
Sexual side effects, NNH ([2]; Trial 1, 15 mg + SSRI): =placebo
Sleep side effects, NNH ([2]; Trial 1, 15 mg + SSRI): <placebo
Somatic side effects, NNH ([2]; Trial 1, 15 mg + SSRI): <placebo
treatment effect within genetic modifiers (race, age, sex, BMI) [3]: statistically significant treatment effect
